We go through 29 molecules from US11440907B1 (Merck Patent GmbH, priority 2018, dated 2022).

Assay [1] relates to XBP1(u)-luciferase splicing reporter in HepG2 hepatoma cells. In words: HepG2 XBP1 reporter assay (XBP1(u)-Luc). It counts as cell-based. The following applies: Homo sapiens, 6 hours after compound addition, Table 3, read-out: XBP1-luc HepG2 1 EC50. (A reporter such as luciferase makes a cellular process visible.)
Assay [2] deals with β-catenin-TCF-mediated reporter transcription activity in Colo 205 cells. Briefly: Colo 205 reporter assay (TCF/LEF promoter-driven firefly luciferase). It counts as cell-based. The following applies: Homo sapiens; Colo 205 TCF/LEF luciferase reporter, 5 hours after compound addition, 384 well; read-out: Colo205 IC50. The text has this:
The compounds of the invention described herein were screened using the assay procedure for β-catenin-TCF-mediated reporter transcription activity described below.
Reporter cell lines were generated by stably transfecting cells of cancer cell lines (e.g., colon cancer) with a plasmid reporter construct (From SABiosciences, a QIAGEN company) that includes TCF/LEF promoter driving expression of the firefly luciferase gene. TCF/LEF reporter constructs were made in which TCF/LEF promoter, a promoter with optimal number of TCF/LEF binding sites designed by SABiosciences, was linked upstream of the firefly luciferase gene. This construct could also include a puromycin resistance gene as a selectable marker. This construct could also be used to stably transfect Colo 205 cells, a colon cancer cell line having a mutated APC gene that causes a constitutively active β-catenin. A control cell line was generated using another plasmid construct containing the luciferase gene under the control of a CMV basal promoter which is not activated by β-catenin.
Colo 205 Cultured cells with a stably transfected reporter construct were plated at approximately 10,000 cells per well into 384 well multi-well plates for twenty four hours. The testing compounds were then added to the wells in 2-fold serial dilutions using a twenty micromolar top concentration. A series of control wells for each cell type received only compound solvent. Five hours after the addition of compound, reporter activity for luciferase was assayed, by addition of the SteadyGlo luminescence reagent (Promega). The reporter luminescence activity was measured using Pherastar plate reader (BMG Labtech). Readings were normalized to DMSO only treated cells, and normalized activities were then used in the IC50 calculations. The Colo 205 reporter assay data are summarized in Table 3: A<0.3 μM; 0.3 μM≤B<1.0 μM; 1.0 μM≤C<5.0 μM; D≥5.0 μM.

Regarding `Cc1cc(N2CCCCCC2c2ccccc2)nc(N)n1` (racemic) [I-4, (+/−)-4-methyl-6-(2-phenylazepan-1-yl)pyrimidin-2-amine], the EC50 – broadly, the concentration needed to bring the measured effect to its halfway point – in assay [1] was 2000 to 5000 nM. The half-inhibitory concentration (IC50) (usually the midpoint of a concentration-inhibition curve) in assay [2] was in the range of 300 to 1000 nM.
Taken in the same sequence, the figures for `Cc1cc(N2CCCCCC2c2ccccc2C)nc(N)n1` (racemic) [I-6, (+/−)-4-methyl-6-(2-(2-(methyl)phenyl)azepan-1-yl)pyrimidin-2-amine] were 2000 to 5000 nM and 300 to 1000 nM.
In the case of `COc1ccc(C2CCCCCN2c2cc(C)nc(N)n2)cc1` (racemic) [I-23, (+/−)-4-[2-(4-methoxyphenyl)azepan-1-yl]-6-methyl-pyrimidin-2-amine], the EC50 in assay [1] is not below 5000 nM. Further, the IC50 in assay [2] fell in the range of 300 to 1000 nM.
In the case of `COc1ccc(OC)c(C2CCCCCN2c2cc(C)nc(N)n2)c1` (racemic) [I-25, (+/−)-4-(2-(2,5-dimethoxyphenyl)azepan-1-yl)-6-methylpyrimidin-2-amine], in assay [1], the concentration for a half-maximal effect (EC50) lay within 600 to 2000 nM. Moreover, the IC50 in assay [2] is less than 300 nM.
Turning to `CCc1ccccc1C1CCCCCN1c1cc(C)nc(N)n1` (racemic) [I-45, (+/−)-4-(2-(2-ethylphenyl)azepan-1-yl)-6-methylpyrimidin-2-amine], the EC50 in assay [1] is 600 to 2000 nM. Moreover, the IC50 in assay [2] was in the range of 300 to 1000 nM.
As for `COc1cccc(F)c1C1CCCCCN1c1cc(C)nc(N)n1` (racemic) [I-50, (+/−)-4-[2-(2-fluoro-6-methoxy-phenyl)azepan-1-yl]-6-methyl-pyrimidin-2-amine], the EC50 in assay [1] fell in the range of 600 to 2000 nM. The IC50 in assay [2] was 300 to 1000 nM.
With `CC(=O)Nc1cc(C2COCCCN2c2cc(C)nc(N)n2)c(Cl)cc1F` (racemic) [I-85, N-[5-[4-(2-amino-6-methyl-pyrimidin-4-yl)-1,4-oxazepan-3-yl]-4-chloro-2-fluoro-phenyl]acetamide], the EC50 in assay [1] lay in the range of 600 to 2000 nM. In assay [2], the IC50 fell in the range of 300 to 1000 nM.
As to `Cc1cc(N2CCCOC[C@@H]2c2cc(NC(=O)CCO)ccc2Cl)nc(N)n1` (racemic) [I-174, (+/−)-N-[3-[4-(2-amino-6-methyl-pyrimidin-4-yl)-1,4-oxazepan-3-yl]-4-chloro-phenyl]-3-hydroxy-propanamide], the concentration giving a half-maximal response (EC50) in assay [1] lay in the range of 600 to 2000 nM. In addition, in assay [2], the IC50 was 300 to 1000 nM.
On to `Cc1cc(N2CCCOCC2c2ccc(N3CCN(C)CC3)cc2Cl)nc(N)n1` (racemic) [I-225, (+/−)-4-[3-[2-chloro-4-(4-methylpiperazin-1-yl)phenyl]-1,4-oxazepan-4-yl]-6-methyl-pyrimidin-2-amine], for which the EC50 in assay [1] was in the range of 600 to 2000 nM. For the same molecule, in assay [2], the 50% inhibitory concentration (IC50) was in the range of 300 to 1000 nM.
In the case of `Cc1cc(N2CCCOCC2c2ccc(N3CCCC3)cc2Cl)nc(N)n1` (racemic) [I-227, (+/−)-4-[3-(2-chloro-4-pyrrolidin-1-yl-phenyl)-1,4-oxazepan-4-yl]-6-methyl-pyrimidin-2-amine], in assay [1], the EC50 was 600 to 2000 nM. The half-inhibitory concentration (IC50) in assay [2] lay in the range of 300 to 1000 nM.
Taken in the same sequence, the figures for `Cc1cc(N2CCCOCC2c2ccc(NC(=O)C(C)(F)F)cc2Cl)nc(N)n1` (racemic) [I-228, (+/−)-N-(4-(4-(2-amino-6-methylpyrimidin-4-yl)-1,4-oxazepan-3-yl)-3-chlorophenyl)-2,2-difluoropropanamide] were less than 600 nM and 300 to 1000 nM.
Take `Cc1cc(N2CCCOCC2c2ccc(OCC3(C)CCOC3)cc2Cl)nc(N)n1` (racemic) [I-229, (+/−)-4-[3-[2-chloro-4-[(3-methyltetrahydrofuran-3-yl)methoxy]phenyl]-1,4-oxazepan-4-yl]-6-methyl-pyrimidin-2-amine]: the EC50 in assay [1] was less than 600 nM. The concentration for half-maximal inhibition (IC50) in assay [2] lay in the range of 300 to 1000 nM.
On to `Cc1cc(N2CCCOCC2c2ccc(OCCC(C)(C)O)cc2Cl)nc(N)n1` (racemic) [I-230, (+/−)-4-[4-[4-(2-amino-6-methyl-pyrimidin-4-yl)-1,4-oxazepan-3-yl]-3-chloro-phenoxy]-2-methyl-butan-2-ol], for which, in assay [1], the concentration for a half-maximal effect (EC50) was less than 600 nM. For the same molecule, in assay [2], the IC50 lay within 300 to 1000 nM.
As for `Cc1cc(N2CCCOCC2c2ccc(OC3COC3)cc2Cl)nc(N)n1` (racemic) [I-231, (+/−)-4-[3-[2-chloro-4-(oxetan-3-yloxy)phenyl]-1,4-oxazepan-4-yl]-6-methyl-pyrimidin-2-amine], the 50% effective concentration (EC50) in assay [1] was less than 600 nM. Besides, the IC50 in assay [2] is less than 300 nM.
Taken in the same sequence, the figures for `Cc1cc(N2CCCOCC2c2ccc(OC[C@@H](C)O)cc2Cl)nc(N)n1` (mixture of isomers) [I-232, (+/−)-1-(4-(4-(2-amino-6-methylpyrimidin-4-yl)-1,4-oxazepan-3-yl)-3-chlorophenoxy)propan-2-ol] were less than 600 nM and less than 300 nM.
In the case of `Cc1cc(N2CCCOCC2c2ccc(OCC3(CO)CC3)cc2Cl)nc(N)n1` (racemic) [I-233, (+/−)-[1-[[4-[4-(2-amino-6-methyl-pyrimidin-4-yl)-1,4-oxazepan-3-yl]-3-chloro-phenoxy]methyl]-cyclopropyl]methanol], the EC50 in assay [1] is 600 to 2000 nM. Also, in assay [2], the IC50 was less than 300 nM.
As for `Cc1cc(N2CCCOCC2c2ccc(C3CCCO3)cc2Cl)nc(N)n1` (racemic) [I-235, (+/−)-4-(3-(2-chloro-4-(tetrahydrofuran-2-yl)phenyl)-1,4-oxazepan-4-yl)-6-methylpyrimidin-2-amine], the EC50 in assay [1] is less than 600 nM. In assay [2], the concentration for half-maximal inhibition (IC50) was less than 300 nM.
On to `Cc1cc(N2CCCOCC2c2ccc(C(CO)CO)cc2Cl)nc(N)n1` (racemic) [I-236, (+/−)-2-(4-(4-(2-amino-6-methylpyrimidin-4-yl)-1,4-oxazepan-3-yl)-3-chlorophenyl)propane-1,3-diol], for which the EC50 in assay [1] is less than 600 nM. For the same molecule, the 50% inhibitory concentration (IC50) in assay [2] is less than 300 nM.
`Cc1cc(N2CCCOCC2c2ccc(C3CCOC3)cc2Cl)nc(N)n1` (racemic) [I-238, (+/−)-4-(3-(2-chloro-4-(tetrahydrofuran-3-yl)phenyl)-1,4-oxazepan-4-yl)-6-methylpyrimidin-2-amine]: the EC50 in assay [1] was less than 600 nM. Besides, in assay [2], the IC50 is less than 300 nM.
`Cc1cc(N2CCCOCC2c2ccc(C3CCC(=O)N3C)cc2Cl)nc(N)n1` (racemic) [I-239, (+/−)-5-(4-(4-(2-amino-6-methylpyrimidin-4-yl)-1,4-oxazepan-3-yl)-3-chlorophenyl)-1-methylpyrrolidin-2-one]: the EC50 in assay [1] is less than 600 nM. In addition, the IC50 in assay [2] lay in the range of 300 to 1000 nM.
For the molecule `Cc1cc(N2CCCOCC2c2cc(NC(=O)C3CC3)ccc2Cl)nc(N)n1` (racemic) [I-241, (+/−)-N-[3-[4-(2-amino-6-methyl-pyrimidin-4-yl)-1,4-oxazepan-3-yl]-4-chloro-phenyl]cyclopropanecarboxamide], the EC50 in assay [1] is less than 600 nM. Further, the IC50 in assay [2] was less than 300 nM.
For `Cc1cc(N2CCCOCC2c2cc(NCCCO)ccc2Cl)nc(N)n1` (racemic) [I-249, (+/−)-3-[3-[4-(2-amino-6-methyl-pyrimidin-4-yl)-1,4-oxazepan-3-yl]-4-chloro-anilino]propan-1-ol], the 50% effective concentration (EC50) in assay [1] was less than 600 nM. The concentration for half-maximal inhibition (IC50) in assay [2] is less than 300 nM.
Consider `Cc1cc(N2CCCOCC2c2cc(NC(=O)C(F)F)ccc2Cl)nc(N)n1` (racemic) [I-250, (+/−)-N-(3-(4-(2-amino-6-methylpyrimidin-4-yl)-1,4-oxazepan-3-yl)-4-chlorophenyl)-2,2-difluoroacetamide], for which, in assay [1], the EC50 was less than 600 nM. The IC50 in assay [2] is less than 300 nM.
Regarding `Cc1cc(N2CCCOCC2c2cc(NC(=O)CC(C)(C)O)ccc2Cl)nc(N)n1` (racemic) [I-251, (+/−)-N-[3-[4-(2-amino-6-methyl-pyrimidin-4-yl)-1,4-oxazepan-3-yl]-4-chloro-phenyl]-3-hydroxy-3-methyl-butanamide], in assay [1], the EC50 is 600 to 2000 nM. Also, the IC50 in assay [2] is less than 300 nM.
As to `CC(=O)N(C)Cc1ccc(C2COCCCN2c2cc(C)nc(N)n2)c(Cl)c1` (racemic) [I-254, (+/−)-N-(4-(4-(2-amino-6-methylpyrimidin-4-yl)-1,4-oxazepan-3-yl)-3-chlorobenzyl)-N-methylacetamide], in assay [1], the EC50 was less than 600 nM. Also, the half-inhibitory concentration (IC50) in assay [2] was less than 300 nM.
For the molecule `Cc1cc(N2CCCOCC2c2ccc(C3COC3)cc2Cl)nc(N)n1` (racemic) [I-255, (+/−)-4-[3-[2-chloro-4-(oxetan-3-yl)phenyl]-1,4-oxazepan-4-yl]-6-methyl-pyrimidin-2-amine], the concentration for a half-maximal effect (EC50) in assay [1] lay within 600 to 2000 nM. Also, the 50% inhibitory concentration (IC50) in assay [2] was less than 300 nM.
Taken in the same sequence, the figures for `Cc1cc(N2CCCOCC2c2ccc(C3CCCN3)cc2Cl)nc(N)n1` (racemic) [I-267] were less than 600 nM and less than 300 nM.
On to `Cc1cc(N2CCCOCC2c2cc3c(cc2Cl)SCC(=O)N3)nc(N)n1` (racemic) [I-268, 6-[4-(2-amino-6-methyl-pyrimidin-4-yl)-1,4-oxazepan-3-yl]-7-chloro-4H-1,4-benzothiazin-3-one], for which the half-maximal effective concentration (EC50) in assay [1] is less than 600 nM. In addition, the IC50 in assay [2] is less than 300 nM.
With `Cc1cc(N2CCCOCC2c2ccc(N3CCN(C(=O)C4CC4)CC3)cc2Cl)nc(N)n1` (racemic) [I-273, (+/−)-[4-[4-[4-(2-amino-6-methyl-pyrimidin-4-yl)-1,4-oxazepan-3-yl]-3-chloro-phenyl]piperazin-1-yl]-cyclopropyl-methanone], the EC50 in assay [1] was less than 600 nM. For the same molecule, the IC50 in assay [2] was less than 300 nM.
